Values quoted from earlier work as cited in patent US7718385B2, “Bioactivation of alkylating agents for cancer treatment” (priority 2003, dated 2010).

How the values were obtained:
NCI-H23 = settings: NCI-H23, Non-Small Cell Lung, cited from earlier work
HS 578T = settings: cited from earlier work
HCT-116 = settings: HCT-116, Colon, cited from earlier work

CC1=C(CO)C2=C(C)C3(CC3)[C@@](C)(O)C(=O)C2=C1 [Irofulven, 6-hydroxymethylacylfulvene]
GI50 (NCI-H23): 79.4 nM | TGI (NCI-H23): 3.16E−07 | log(GI50) (NCI-H23): −7.1 | log(LC50) (NCI-H23): −6.1 | log(TGI) (NCI-H23): −6.5 | CC50 (NCI-H23; read-out: LC50): 794 nM | GI50 (HS 578T; Breast): 316 nM | TGI (HS 578T; Breast): 1.58E−06 | log(GI50) (HS 578T; Breast): −6.5 | log(LC50) (HS 578T; Breast): −4.7 | log(TGI) (HS 578T; Breast): −5.8 | CC50 (HS 578T; read-out: LC50, Breast): 20000 nM | GI50 (HCT-116): 200 nM | TGI (HCT-116): 5.01E−07 | log(GI50) (HCT-116): −6.7 | log(LC50) (HCT-116): −4.5 | log(TGI) (HCT-116): −6.3 | CC50 (HCT-116; read-out: LC50): 31600 nM
